According to patent US20260226025A1, “PHARMACEUTICALLY ACCEPTABLE SALT AND CRYSTAL FORM OF TRIAZOLE COMPOUND, AND PREPARATION METHOD THEREFOR” (JIANGSU HENGRUI PHARMACEUTICALS CO., LTD., priority 2023, published 2026):

Biological target: T1, hLPAR1 (human lysophosphatidic acid receptor 1) (Homo sapiens, UniProt Q92633)
T1 construct: host or cells: CHO-K1 (CHO-K1/LPA1R, cultured under hygromycin B selection)
Test: FLIPR antagonist property test: LPA-induced intracellular calcium elevation in CHO-K1/LPA1R cells
Format: cell-based
Conditions: hLPAR1 expressed in CHO-K1 cells, LPA at EC80, read-out: LPAR1 IC50
Description: The antagonist properties of a compound of the present disclosure were assessed using the FLIPR (fluorometric imaging plate reader) method. The compound is an inhibitor of intracellular calcium elevation induced by activation of hLPAR1 (human lysophosphatidic acid receptor 1) expressed in CHO-K1 cells (Chinese hamster ovary K1 cells, HDB). • 1. Experimental reagents and instrument consumables
• 2. Reagent preparation • 2.1. Reaction buffer: HBSS+20 mM HEPES+0.1% fatty acid-free BSA+0.001% F-127 • 2.2. 50× Red dye: (a red dye for blocking background signals in cells) prepared by: weighing out 4 g of tartrazine and 10.2 g of acid red and dissolving them in 100 mL of H2O. • 2.3. Fluo-8 staining mixture: 4 mL of reaction buffer, 32 μL of fluo-8, 320 μL of 50× Red dye, and 40 μL of probenecid. • 3. Compound preparation • 3.1. […] When the cells became round, the digestion was stopped with culture medium F-12 (10% FBS), and the cells were counted. […] An FLIPR was correspondingly programmed, the 6×LPA gradient solutions were added, and readings were taken. […] A reaction curve was obtained from the numerical values of LPA, and the concentration of LPA at EC80 was calculated. […] An FLIPR was correspondingly programmed, the 6×LPA solution was added, and readings were taken. […] Finally, the output fluorescence counts were analyzed, and the IC50 of the compound was calculated. • 5. […]

T1 sequence (Q92633 whole entry): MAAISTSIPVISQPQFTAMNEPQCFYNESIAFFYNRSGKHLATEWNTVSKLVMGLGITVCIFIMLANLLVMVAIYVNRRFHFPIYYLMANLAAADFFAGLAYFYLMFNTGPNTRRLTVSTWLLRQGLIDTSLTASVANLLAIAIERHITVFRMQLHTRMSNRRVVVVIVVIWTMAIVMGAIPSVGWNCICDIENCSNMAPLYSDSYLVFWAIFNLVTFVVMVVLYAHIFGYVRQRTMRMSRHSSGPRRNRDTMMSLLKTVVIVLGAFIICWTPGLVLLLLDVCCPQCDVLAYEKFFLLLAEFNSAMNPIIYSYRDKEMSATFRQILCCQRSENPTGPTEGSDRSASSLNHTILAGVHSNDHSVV

- IC50: 8.7 nM
SMILES: COCc1ccnc(OCc2c(-c3ccc(O[C@H]4C[C@@H]5CC[C@H](C(=O)O)[C@@H]5C4)c(C)n3)nnn2C)n1 [Compound 1-P1, (1S,3aS,5S,6aR)-5-((6-(5-(((4-(methoxymethyl)pyrimidin-2-yl)oxy)methyl)-1-methyl-1H-1,2,3-triazol-4-yl)-2-methylpyridin-3-yl)oxy) octahydropentalene-1-carboxylic acid]
